Reference: US20240239794A1, “PKC-Theta Modulators” (Exscientia AI Limited, priority 2021, published 2024)
Where a name gives a salt, the structure may show the parent alone. Read-outs that look alike come from different tables or passages of the source.

Columns and labels:
[1] = target: Recombinant human PKC-delta (His-tagged 345-676) (Homo sapiens (Human), UniProt Q05655); test: PKC-delta inhibition assay (HTRF KinEASE kit), PKC-theta/PKC-delta selectivity; assay type: biochemical; conditions: ratio; for PKC-theta/PKC-delta selectivity: PKC-theta over PKC-delta, HTRF assays; for PKC-theta/PKC-delta selectivity (binned): binned A to G
Procedure: (§1) PKC-theta and PKC-delta biochemical activities were measured using the PKC-theta HTRF KinEASEkit kit, according to manufacturer's instructions (Cisbio, catalogue number 61ST1PEJ). Briefly, the kinase buffer component of the kit was supplemented with 10 mM MgCl2, 1 mM DTT and 0.1% Tween 20. For the PKC-theta assay, STK substrate and ATP were added to provide a final assay concentration of 525 nM and 6.5 μM, respectively. For the PKC-delta assay, STK substrate and ATP were added to provide a final assay concentration of 243 nM and 5.7 μM, respectively. The streptavidin_XL665 and STK antibody-cryptate detection reagents were mixed according to the manufacturer's instructions. Test compounds were diluted in DMSO in a series of 10 semi-log step doses; 10 nL of each compound dose were dispensed in 384 well plates. Recombinant human PKC-theta (His-tagged 362-706) or PKC-delta (His-tagged 345-676) was diluted into kinase buffer to provide a final assay concentration of 10 ng/ml and added to the test compound for 30 minutes on ice. The reaction was started by addition of the substrate and ATP and incubated at 25° C. for 30 minutes or 20 minutes for the PKC-theta and PKC-delta assays, respectively. The detection reagents were added, and the plate was incubated in the dark for 2 hours. Fluorescence was measured on an Envision 2103 plate reader with optical setup for […] in the HTRF mode. The ratio of acceptor and donor emission signals was calculated for each well. Percent inhibition values were calculated from the HTRF ratios at different doses and fitted to a 4-parameter logistic curve to determine IC50 values (see Table 1).

[2] = target: Recombinant human PKC-theta (His-tagged 362-706) (Homo sapiens (Human), UniProt Q04759); test: PKC-theta inhibition assay (HTRF KinEASE kit); assay type: biochemical; conditions: ATP 6.5 μM
Procedure: as §1

[3] = tested on: IL-2 secretion by human effector memory T cells (TEM); test: Effector memory T cells IL-2 release assay; assay type: cell-based; conditions: T-cell, 24 h
Procedure: Test compound-mediated inhibition of NFκB signalling in T cells was assessed by quantification of the IL-2 secretion by human effector memory T cells (TEM) upon treatment and stimulation. Human TEM cells were isolated from buffy coats of healthy donors obtained from the French blood bank. First, peripheral blood mononuclear cells (PBMC) were purified from buffy coats diluted 1:1 with DPBS (Gibco, cat #14190-094) by Pancoll (PAN BIOTECH, cat #P04-60500) density gradient centrifugation at 400×g for 20 minutes. TEM cells were further enriched by negative immuno-magnetic cell sorting using a human CD4+ Effector Memory T Cell Isolation Kit (Miltenyi, cat #130-094-125) according to the manufacturer's instructions. Aliquots of 3×10E6 purified TEM cells were kept frozen in Cryo-SFM medium (PromoCell, cat #C-29912) in gas phase nitrogen until used. Cell purity was verified by flow cytometry analysis of 200 000 PFA-fixed cells previously labelled with monoclonal antibodies anti-CD4-PerCP-Cy5.5 (BD Pharmigen, cat #332772), anti-CD8-V500 (BD Biosciences, cat #561617), anti-CD14-Pacific Blue (Biolegend, cat #325616), anti-CD45 RA-FITC (Biolegend, cat #304106) and anti-CCR7-APC (in CD4+ Effector Memory T Cell Isolation Kit, Miltenyi, cat #130-094-125).
TEM cells were resuspended in complete RPMI medium composed of: RPMI 1640 (Gibco, cat #31870-025), 10% heat inactivated fetal bovine serum (Sigma, cat #F7524), 2 mM GlutaMAX (Gibco, cat #35050-038), 1 mM sodium pyruvate 100× (Gibco, cat #11360-039), 1% MEM non-essential amino acids solution (Gibco, cat #11140-035) and 100 U/mL penicillin, 100 µg/mL streptomycin (Sigma-Aldrich, cat #11074440001). 5,000 cells per well were plated onto flat clear bottom 384 well plates (Corning, cat #3770). 5,000 Dynabeads Human T-Activator CD3/CD28 (Gibco, cat #11132D) were added to each well for cell stimulation. Finally, 10 doses of test compound, originally prepared in DMSO by serial semi-log step dilution, were also added to cells in triplicate wells. Final DMSO concentration in wells was 0.1% in a total volume of 100 µL complete medium. Plates were incubated for 24 h at 37° C. in 5% CO2 atmosphere. After incubation, cell suspensions were centrifuged at 400×g and culture supernatants were recovered and stored at −80° C. Cell viability was assessed by flow cytometry after staining the cells with Fixable Viability Dye eFluor 780 (Invitrogen, cat #65-0865-14). IL-2 levels were determined in cell supernatants using an HTRF human IL-2 detection kit (Cisbio, cat #62HIL02PEH). IL-2 data at the different compound doses were fitted to a 4-parameter logistic curve to determine IC50 values, corresponding to the compound concentration leading to 50% reduction of the maximal IL-2 levels observed in each experiment. Viability data were analysed similarly to exclude cytotoxicity as a cause of IL-2 decrease (see Table 1).

[4] = binned A to H, read-out: PKC-theta HTRF pIC50 (binned) (converted)
[5] = read-out: PKC-theta HTRF pIC50 (converted)
[6] = human CD4+ TEM cells, CD3/CD28 bead stimulation, binned A to G, read-out: PKC-theta IL2 pIC50 (binned) (converted)
[7] = human CD4+ TEM cells, CD3/CD28 bead stimulation, read-out: PKC-theta IL2 pIC50 (converted)
[8] = Homo sapiens, read-out: PKC-theta IL2 pIC50 (binned) (converted)
[9] = Homo sapiens, read-out: PKC-theta IL2 pIC50 (converted)

Recombinant human PKC-theta (His-tagged 362-706), sequence (Q04759 362-706): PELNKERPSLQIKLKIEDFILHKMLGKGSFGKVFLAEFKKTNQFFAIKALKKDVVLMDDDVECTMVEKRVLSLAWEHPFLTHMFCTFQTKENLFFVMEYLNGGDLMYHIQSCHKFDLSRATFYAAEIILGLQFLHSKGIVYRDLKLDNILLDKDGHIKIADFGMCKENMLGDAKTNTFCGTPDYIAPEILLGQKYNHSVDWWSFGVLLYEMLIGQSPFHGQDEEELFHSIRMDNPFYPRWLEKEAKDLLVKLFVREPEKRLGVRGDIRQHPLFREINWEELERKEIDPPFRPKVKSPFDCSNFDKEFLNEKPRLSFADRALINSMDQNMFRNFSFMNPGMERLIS
Recombinant human PKC-delta (His-tagged 345-676), sequence (Q05655 345-676): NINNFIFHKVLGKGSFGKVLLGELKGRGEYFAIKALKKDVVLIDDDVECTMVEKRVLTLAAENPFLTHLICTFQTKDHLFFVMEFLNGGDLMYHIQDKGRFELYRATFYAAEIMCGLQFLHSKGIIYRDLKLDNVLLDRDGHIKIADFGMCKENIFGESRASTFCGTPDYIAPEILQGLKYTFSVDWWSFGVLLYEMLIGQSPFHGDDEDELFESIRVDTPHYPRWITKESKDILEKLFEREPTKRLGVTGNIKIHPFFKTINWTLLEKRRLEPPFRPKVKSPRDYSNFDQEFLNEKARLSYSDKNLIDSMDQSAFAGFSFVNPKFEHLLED

| Structure (SMILES) | PKC-theta/PKC-delta selectivity [1] | PKC-theta/PKC-delta selectivity (binned) [1] | IC50 [2, 4] [nM] | IC50 [2, 5] [nM] | IC50 [3, 6] [nM] | IC50 [3, 7] [nM] | PKC-theta HTRF pIC50 [2] | IC50 [3, 8] [nM] | IC50 [3, 9] [nM] |
| --- | --- | --- | --- | --- | --- | --- | --- | --- | --- |
| CC1(C)C(=O)Nc2nccc(-c3ccn(C4CCNCC4)n3)c21 [Example 8, 3,3-dimethyl-4-[1-(4-piperidyl)pyrazol-3-yl]-1H-pyrrolo[2,3-b]pyridin-2-one Dihydrochloride] | 5 | E (E means a ratio of between 5 and 10) | 3.16 to 10 |  |  |  | 8.1 | 100 to 316 | 126 |
| COC1(C)C(=O)Nc2nccc(-c3nn(C4(CC#N)CCC4)c4ccccc34)c21 (stereo not drawn) [Example 57] | 14 | D (D means a ratio of between 10 and 20) | 1 to 3.16 |  | 31.6 to 100 | 50.1 | 8.9 |  |  |
| C[C@@]1(O)C(=O)Nc2nccc(-c3nn(CC4CCNCC4)c4ccccc34)c21 (single isomer, unassigned) [Example 29] | 24 | C (C means a ratio of between 20 and 30) | ≤ 1 | 0.398 | 31.6 to 100 | 39.8 |  |  |  |
| O=c1[nH]c2nccc(-c3cnn(C4CCNCC4)c3)c2[nH]1 [Example 1] | 1 | G (G means a ratio of between 0 and 1) | 316 to 1000 |  | > 1000 | 3160 | 6.1 |  |  |
| CC[C@]1(O)C(=O)Nc2nccc(-c3nn([C@@H]4CCNC[C@@H]4F)c4ccccc34)c21 (single isomer, unassigned) [Example 85] | 10 | E (E means a ratio of between 5 and 10) | 31.6 to 100 | 50.1 | > 1000 | 1260 |  |  |  |
| CC1(C)C(=O)Nc2nccc(-c3cn(C4CCNCC4)c4ccccc34)c21 [Example 7, 3,3-dimethyl-4-[1-(4-piperidyl)indol-3-yl]-1H-pyrrolo[2,3-b]pyridin-2-one Dihydrochloride] | 6 | E (E means a ratio of between 5 and 10) | 31.6 to 100 |  |  |  | 7.4 | 316 to 1000 | 501 |
| CO[C@@]1(C)C(=O)Nc2nccc(-c3nn([C@H]4CCNC[C@H]4F)c4ccccc34)c21 (single isomer, unassigned) [Example 93] | 10 | E (E means a ratio of between 5 and 10) | 3.16 to 10 | 3.98 | 31.6 to 100 | 50.1 |  |  |  |
| CC[C@]1(C)C(=O)Nc2nccc(-c3nn([C@H]4CCNC[C@H]4F)c4ccccc34)c21 (single isomer, unassigned) [Example 108] | 17 | D (D means a ratio of between 10 and 20) | 1 to 3.16 | 3.16 | 31.6 to 100 | 50.1 |  |  |  |

Now from value to compound, other results behind:

| PKC-theta/PKC-delta selectivity [1] | PKC-theta/PKC-delta selectivity (binned) [1] | IC50 [2, 4] [nM] | IC50 [2, 5] [nM] | IC50 [3, 6] [nM] | IC50 [3, 7] [nM] | PKC-theta HTRF pIC50 [2] | Structure (SMILES) | IC50 [3, 8] [nM] | IC50 [3, 9] [nM] |
| --- | --- | --- | --- | --- | --- | --- | --- | --- | --- |
| 15 | D (D means a ratio of between 10 and 20) | 1 to 3.16 | 1.26 | 31.6 to 100 | 50.1 |  | CO[C@@]1(C)C(=O)Nc2nccc(-c3nn(CC4(F)CCNCC4)c4cc(F)ccc34)c21 (single isomer, unassigned) [Example 79] |  |  |
| 12 | D (D means a ratio of between 10 and 20) | 1 to 3.16 |  | 31.6 to 100 | 39.8 | 8.8 | CC1(O)C(=O)Nc2nccc(-c3nn([C@@H]4CCNC[C@@H]4F)c4ccccc34)c21 (stereo partly drawn) [Example 34] |  |  |
| 42 | B (B means a ratio of between 30 and 50) | 10 to 31.6 | 25.1 | 316 to 1000 | 631 |  | CC[C@]1(C)C(=O)Nc2nccc(-c3nn([C@@H]4CCNC[C@@H]4F)c4cc(F)ccc34)c21 (single isomer, unassigned) [Example 101] |  |  |
| 23 | C (C means a ratio of between 20 and 30) | 3.16 to 10 | 3.98 | 100 to 316 | 126 |  | CN[C@@]1(C)C(=O)Nc2nccc(-c3nn(C4(CC#N)CCC4)c4ccccc34)c21 (single isomer, unassigned) [Example 94] |  |  |
| 15 | D (D means a ratio of between 10 and 20) | 10 to 31.6 | 12.6 | 100 to 316 | 158 |  | CO[C@@]1(C)C(=O)Nc2nccc(-c3nn([C@@H]4CCNC[C@@H]4F)c4ccccc34)c21 (single isomer, unassigned) [Example 92] |  |  |
| 22 | C (C means a ratio of between 20 and 30) | 1 to 3.16 |  | 31.6 to 100 | 39.8 | 8.9 | CC1(C)C(=O)Nc2nccc(-c3nn(C[C@@]4(C)COCCN4)c4ccccc34)c21 (single isomer, unassigned) [Example 31] |  |  |
| 22 | C (C means a ratio of between 20 and 30) | 3.16 to 10 |  | 100 to 316 | 126 | 8.1 | CC1(C)C(=O)Nc2nccc(-c3nn([C@H]4CCNC4)c4cc(Cl)ccc34)c21 [Example 71] |  |  |
| 33 | B (B means a ratio of between 30 and 50) | 100 to 316 | 316 | 316 to 1000 | 794 |  | C[C@@]1(O)C(=O)Nc2nccc(-c3nn(C4(CC#N)COC4)c4ccccc34)c21 (single isomer, unassigned) [Example 48] |  |  |
| 11 | D (D means a ratio of between 10 and 20) | ≤ 1 | 0.631 | 10 to 31.6 | 20 |  | C[C@@]1(O)C(=O)Nc2nccc(-c3nn(C4(CC#N)CCC4)c4cc(F)ccc34)c21 (single isomer, unassigned) [Example 59] |  |  |
